Experimental data published in patent EP0643966A1, “SENSITIVITY ENHANCER FOR ANTINEOPLASIC AGENT” (KYOWA HAKKO KOGYO CO., LTD., priority 1993, dated 1994).
pIC50: −log10 of the molar value. Where a name gives a salt, the structure may show the parent alone. Read-outs that look alike come from different tables or passages of the source.

Key:
[1] = test system: Adriamycin-Resistant Human Ovary Cancer Cells (A2780/ADM); details: 72 h
Protocol: (§1) A2780/ADM cells were diluted with an RPMI 1640 medium (430-1800 EB, produced by GIBCO) containing 10% fetal bovine serum (200-6140AG, produced by GIBCO) and 1% glutamine (320-5030 PG, produced by GIBCO) to a concentration of 30000 cells/ml. One milliliter of the cell suspension was inoculated to each well of a 24-well microtiter plate and cultured under conditions of 37°C, 5% CO₂, and a humidity of 95% or higher for 1 day. A mixture of 0.1 ml of a Vindesine solution diluted serially with the above medium and 0.1 ml of the above medium was added to each well as a control group. […] The cells in each well were further cultured under the same conditions as above for additional 3 days, and the number of the cells was counted with a Coulter counter to obtain a 50% growth inhibitory concentration (IC₅₀) of the control groups and the test groups.

[2] = test system: Adriamycin-Resistant Human Ovary Cancer Cells (A2780/ADM); assay: Test on Vindesine Resistance Using Adriamycin-Resistant Human Ovary Cancer Cells (A2780/ADM)
Protocol: as §1

[3] = test system: Vincristine-Resistant Mouse Leukemia Cells (P388/VCR); assay: Test on Vincristine Resistance Using Vincristine-Resistant Mouse Leukemia Cells (P388/VCR); type: in vivo; details: for T/C: P388/VCR-implanted CDF₁ mice
Protocol: Vincristine-resistant P388 cells (P388/VCR) were suspended in physiological saline, and 5x10⁶ cells/0.2 ml were intraperitoneally implanted to grouped 6-week-old CDF₁ strain male mice, each group consisting of 5 mice. A prescribed amount of Vincristine alone or a mixture of Vincristine and a test compound (I) was intraperitoneally administered for consecutive 5 days from the next day of the implantation. The effect of overcoming the drug resistance was evaluated in terms of T/C, a percentage of the number of survival days of a test group to the number of survival days of a control group.
Vincristine (VCR) used was Vincristine Sulfate, produced by Shionogi & Co., Ltd., dissolved in physiological saline. Compound (I) was suspended in a 0.3% aqueous solution of carboxymethyl cellulose and administered in an amount of 0.1 ml per 10 g-b.w. […]

[4] = A2780, 72 h, read-out: IC₅₀ of Test Compound Alone, A2780/ADM cells, test compound alone, 3 days culture, cell count

Row | pIC50 [2, 4] | Compound | other results
1 | 5.04 | COC1C(N(C)CCO)CC2OC1(C)n1c3ccccc3c3c4c(c5c6ccccc6n2c5c31)C(=O)NC4O (single isomer, unassigned) [Compound I-9] | –
2 | 6.59 | CNC1CC2OC(C)(C1OC)n1c3ccccc3c3c4c(c5c6ccccc6n2c5c31)C(=O)N(C)C4 (stereo not drawn) [Compound I-1] | –
3 | 5.04 | COC1C(N(C)C(=O)CN(C)C)CC2OC1(C)n1c3ccccc3c3c4c(c5c6ccccc6n2c5c31)C(=O)NC4O (stereo not drawn) [Compound I-5] | –
4 | 6.80 | CCOC(=O)C1(O)CC2OC1(C)n1c3ccccc3c3c4c(c5c6ccccc6n2c5c31)C(=O)NC4 (stereo not drawn) [Compound I-11] | pIC50 ([2]; A2780, read-out: IC₅₀ of Vindesine, A2780/ADM cells, Vindesine with test compound at 0.05 µM): 6.11
5 | 6.38 | CCCOC(=O)C1(O)CC2OC1(C)n1c3ccccc3c3c4c(c5c6ccccc6n2c5c31)C(=O)NC4 (stereo not drawn) [Compound I-12] | –
6 | 5.96 | CCCCOC(=O)C1(O)CC2OC1(C)n1c3ccccc3c3c4c(c5c6ccccc6n2c5c31)C(=O)NC4 (stereo not drawn) [Compound I-13] | –
7 | 5.32 | CCCCCCOC(=O)C1(O)CC2OC1(C)n1c3ccccc3c3c4c(c5c6ccccc6n2c5c31)C(=O)NC4 (stereo not drawn) [Compound I-14] | –
8 | 5.55 | CCCCCCOC(=O)C1(O)CC2OC1(C)n1c3ccccc3c3c4c(c5c6ccccc6n2c5c31)C(=O)NC4=O (stereo not drawn) [Compound I-15] | –
9 | < 4.00 | COC(=O)C1(OC(C)=O)CC2OC1(C)n1c3ccccc3c3c4c(c5c6ccccc6n2c5c31)C(=O)N(C(C)=O)C4 (stereo not drawn) [Compound I-17] | –

Second part, the compound before the results:

Row | Compound | pIC50 [2, 4] | other results
10 | COC1C(N(C)CCO)CC2OC1(C)n1c3ccccc3c3c4c(c5c6ccccc6n2c5c31)C(=O)NC4O (single isomer, unassigned) [Compound I-8] | – | pIC50 [1]: 4.76
11 | COC1C(N(C)C(=O)OCc2ccccc2)CC2OC1(C)n1c3ccccc3c3c4c(c5c6ccccc6n2c5c31)C(=O)N(C)C4 (stereo not drawn) [Compound I-2] | < 4.00 | T/C ([3]; Compound (I-2) alone 22.2 mg/kg i.p. for 5 consecutive days, survival days vs control): 102%; effect of overcoming the drug resistance ([3]; P388/VCR-implanted mice, combined with Vincristine, statement in words): excellent effects to overcome the drug resistance; T/C ([3]; VCR 0.1 mg/kg + Compound (I-2) 22.2 mg/kg i.p. for 5 consecutive days): 152%
12 | COC1C(N(C)C(=O)N2CCN(C)CC2)CC2OC1(C)n1c3ccccc3c3c4c(c5c6ccccc6n2c5c31)C(=O)NC4O (stereo not drawn) [Compound I-3] | 5.00 | –
13 | COC1C(N(C)C(=O)CN2CCOCC2)CC2OC1(C)n1c3ccccc3c3c4c(c5c6ccccc6n2c5c31)C(=O)NC4O (stereo not drawn) [Compound I-4] | 5.15 | –
14 | COC1C(N(C)C(=O)CN2CCN(C)CC2)CC2OC1(C)n1c3ccccc3c3c4c(c5c6ccccc6n2c5c31)C(=O)NC4O (stereo not drawn) [Compound I-6] | 4.90 | –
15 | COC1C(N(C)CCOC(=O)N2CCN(C)CC2)CC2OC1(C)n1c3ccccc3c3c4c(c5c6ccccc6n2c5c31)C(=O)NC4O (stereo not drawn) [Compound I-7] | 5.02 | –
16 | CCOC(=O)N(C)C1CC2OC(C)(C1OC)n1c3ccccc3c3c4c(c5c6ccccc6n2c5c31)C(=O)N(C)C4 (stereo not drawn) [Compound I-10] | – | pIC50 ([2]; A2780, 72 h, read-out: IC₅₀ of Test Compound Alone): < 5.00
17 | CC[C@]1(O)C[C@H]2CN(CCc3c([nH]c4ccccc34)[C@@](C(=O)OC)(c3cc4c(cc3OC)N(C=O)[C@H]3[C@@](O)(C(=O)OC)[C@H](OC(C)=O)[C@]5(CC)C=CCN6CC[C@]43[C@@H]65)C2)C1 [VCR, Vincristine Sulfate, reference compound] | – | T/C ([3]; VCR alone 0.1 mg/kg i.p. for 5 consecutive days): 112%; T/C ([3]; VCR alone 0.2 mg/kg i.p. for 5 consecutive days): 116%; T/C ([3]; VCR alone 0.4 mg/kg i.p. for 5 consecutive days): 121%
18 | CC[C@]1(O)C[C@@H]2CN(CCc3c([nH]c4ccccc34)[C@@](C(=O)OC)(c3cc4c(cc3OC)N(C)[C@H]3[C@@](O)(C(N)=O)[C@H](O)[C@]5(CC)C=CCN6CC[C@]43[C@@H]65)C2)C1 [Vindesine, reference compound] | – | pIC50 ([2]; A2780, read-out: IC₅₀ of Vindesine, A2780/ADM cells, control group: Vindesine alone, no test compound): 5.89
